Experimental data: a melting point compilation (Tetko et al.; mined from patent text by program, amines drawn as free bases though some values may be those of a salt)

SMILES | melting point
COCC(=O)Nc1cccc2c1C1(COc3cc4c(cc31)OCCO4)C(=O)N2C (stereo unspecified) | 237 to 239 °C
Nc1nc2cccnc2c2c1nc(CF)n2CC1(O)CCOC1 (stereo unspecified) | 209 to 210 °C
Cc1nc2cnccc2n1-c1ccc(Cn2nnc3ccccc32)cc1 | 126 to 127 °C
ON=Cc1ccc(OCc2csc(-c3ccccc3)n2)cc1 | 175 to 179 °C
COc1cc2ncnc(N3CCC(CN4C=CC=NS4(=O)=O)CC3)c2cc1OC | 173 to 174 °C
CC#CCOc1ccc(S(=O)(=O)NC2(C(=O)OC)CCCC2)cc1 | 81 to 83 °C
CCCCc1c2c(nc3ccccc13)-c1cc3c(c(=O)n1C2)COC(=O)CC3(O)CC (stereo unspecified) | 220 to 221 °C
CC(C)(C)COc1cccc(C[C@@H](NC(=O)c2cccc3c2C=CCCC3)[C@@H](O)c2cccc(Cl)c2)c1 (racemic) | 128 to 129 °C
COc1cc2[nH]c(=O)n(CC(C)S)c(=O)c2cc1OC (stereo unspecified) | 262 to 264 °C
Oc1cccc2c1CC(N1CCN(c3ncccn3)CC1)CC2 (stereo unspecified) | > 300 °C
Cc1ccc2c(c1)C=Cc1cc(C)ccc1C2c1cn(-c2ccnc(NCC(=O)O)n2)c(=O)[nH]c1=O | 260 to 263 °C
CN(C)CC(C)(C)CNc1ncc2cc(-c3c(Cl)cccc3Cl)c(NC(=O)NC(C)(C)C)nc2n1 | 161 to 170 °C
CC1c2ccccc2N(CCN2CC=C(c3c[nH]c4cc(F)ccc34)CC2)S(=O)(=O)N1C (stereo unspecified) | 105 to 108 °C
CC(C)(C)c1cc(C(=O)c2cc3c(cc2O)CCC3)cc(C(C)(C)C)c1O | 155 to 156 °C
COCCNc1ccc(CN2CCN(C(c3ccccc3)c3ccccc3)CC2)cc1[N+](=O)[O-] | 97.2 °C
CCOC(=O)C1=C(N)N=C(SC)C(C(=O)OCC)C1c1cccc([N+](=O)[O-])c1 (stereo unspecified) | 144 °C
CC(C)[C@H](NC(=O)OCc1csc(N2CCOCC2)n1)C(=O)N[C@@H](Cc1ccccc1)[C@@H](O)C[C@H](Cc1ccccc1)NC(=O)OCc1cncs1 | 146 to 148 °C
O=C(/C=C/c1ccncc1)N[C@H]1c2ccccc2C[C@H]1O | 205 to 207 °C
CCOc1cc2ncc3c(N)nc(-c4ccc(Br)cc4)cc3c2cc1OCC | 230 to 235 °C
OC(COc1ccccc1-n1cccc1)CN1CCOCC1 (stereo unspecified) | 81 to 82 °C
Oc1cccc2c1CCC=C2 | 67 to 68 °C
NS(=O)(=O)c1nnc(NC(=O)c2ccccc2)s1 | 250 °C
CCOCC(O)COc1ccc(NC(=O)CCSC)cc1 (stereo unspecified) | 79 to 81 °C
CC(=O)NCC1CN(c2ccc(NC=O)c(F)c2)C(=O)O1 (stereo unspecified) | 196 to 198 °C
CC1=C(Nc2ccc(C3=NNC(=O)CC3)cc2)CCC1=O | 284 to 285 °C
CC(=O)Oc1cc2ccc(S(=O)(=O)Cl)cc2cc1OC(C)=O | 158 to 167 °C

SMILES | melting point
CCCCCCCCOCC(O)COc1ccc(-n2nc3ccccc3n2)c(O)c1 (stereo unspecified) | 51 to 55 °C
O=C(O)CCc1cnoc1-c1ccc(F)cc1F | 125 to 126 °C
CCOc1ccc2[nH]c(=O)n(-c3ccc(C(C)C)cc3)c2c1 | 100 °C
O=C(O)C1Cc2c(c(Br)cc3c(=O)c4ccccc4oc23)O1 (stereo unspecified) | 283 to 286 °C
O=C(Nc1nc(C(F)(F)C(F)(F)F)c(I)s1)c1cc(C(F)(F)F)cc(C(F)(F)F)c1 | 143 to 144 °C
CS(=O)(=O)c1ccc(-n2nc(-c3ccc4c(c3)CCN(C3CCC3)CC4)ccc2=O)cc1 | 225 °C
CCc1ccc(-c2nc3ccccc3o2)cc1 | 84 to 86 °C
O=C(O)CCCS(=O)(=O)c1ccccc1 | 94 to 95 °C
CC1(C)N=C(O)N=C(NC(=O)c2nc(Cl)c(N)nc2N)N1 | 266 to 268 °C
CCCc1nc2cnc3cccnc3c2n1CC1(O)CCOC1 (stereo unspecified) | 151 to 152 °C
O=C(c1cc2ccccc2o1)c1ccc(O)c(Cl)c1Cl | 163 °C
Cc1oc(-c2ccco2)nc1COc1ccc(COc2ncccc2CC(=O)O)cc1 | 151 to 152 °C
CC(=O)N[C@H]1CCCc2ccccc21 | 153 to 155 °C
Cc1ccc(=O)[nH]c1C | 202 to 207 °C
Nc1nc(-c2cc(Cl)ccc2Cl)nc(N2CCC(CO)CC2)n1 | 173 to 175 °C
CCOC(=O)/C=C/c1c[nH]c(-c2cccs2)c1 | 104 to 105 °C
CCS(=O)(=O)Oc1ccc(C(C)(C)C)cc1C(C)(C)C | 76 °C
O=c1c2ccccc2ccc2cc(F)ccc12 | 119 to 123 °C
O=C(C1=CCCCC1)c1cc(-c2ccccc2)no1 | 70 to 71 °C
Clc1cccc2c1C1(CO1)c1cccc(Cl)c1C21CO1 (stereo unspecified) | 172 to 178 °C
CCOC(=O)C1=C(C)NC(N)(c2nc(-c3cccc(C(F)(F)F)c3)cs2)N=C1 (stereo unspecified) | 227 to 229 °C
CC(C)c1ccc2c(c1)C(=O)c1ccccc1C2=O | 53 to 54 °C
CCCn1c(=O)[nH]c(=O)c2[nH]c(/C=C/c3cc(OC)c(OC)c(OC)c3)nc21 | 286 to 291 °C
O=C1C=C(O)CC(c2ccc3c(c2)OCCO3)C1 (stereo unspecified) | 188 °C
O=C(O)C(=O)Nc1coc2ccc(Cl)cc2c1=O | 213 to 215 °C
CCc1nc2c(c3c1[nH]c1ccccc13)C(=O)CC(C)(C)C2 | 188 to 190 °C

SMILES | melting point
COc1ccc(Nc2ccc(Nc3ncnc4cc(-c5ccccc5)sc34)cc2)cc1 | 210 to 211 °C
COc1cc(CCCCC2OC(=O)NC2=O)ccc1O (stereo unspecified) | 115 to 116 °C
O=C(c1ccc(Cc2ccc(F)cc2)o1)c1oc(CO)cc(=O)c1OCc1ccccc1 | 104 to 106 °C
O=c1occ(CSc2ccc([N+](=O)[O-])cc2)o1 | 109 to 112 °C
FC(F)(F)c1cc(-c2ncn(CCCN3CCOCC3)c2-c2ccncc2)cc(C(F)(F)F)c1 | 136 to 138 °C
O=C(O)c1ccc(OCCCc2ccc(OCc3ccccc3)cc2)cc1 | 128 to 130 °C
CC(C)(C)c1ccc(C(=O)Nc2cn3nc(NCc4ccncc4)ccc3n2)cc1 | 222 to 223 °C
CCOC(=O)c1c(NC(C)=O)cccc1C(C)=O | 88 °C
Cc1ccc(S(=O)(=O)Nc2ccc(CCCC(=O)O)nc2)cc1 | 154 to 155 °C
O=[N+]([O-])c1ccc(CSCc2c[nH]cn2)cc1 | 88 °C
O=C1Nc2ccncc2Oc2ccccc21 | 253 to 254 °C
O=C(CCc1cccc2c1NC(=O)CO2)CCc1cccc2c1NC(=O)CO2 | 183 to 185 °C
CCCOc1ccc(C=CCCCCC(=O)O)cc1 | 52 to 53 °C
CN(C)c1nc2cc(C(F)(F)F)ccc2n1Cc1ccc(Cl)cc1 | 103 to 107 °C
N#CCCSCc1csc(NC(=N)N)n1 | 127 to 128 °C
COc1ccc(C=CC=Cc2ccccc2)cc1 | 160 to 162 °C
Cc1csc2c(=O)n(N=Cc3ccc(Cl)cc3)cnc12 | 213 to 215 °C
CN1C(=O)CCCC1(O)C=Cc1ccccc1 (stereo unspecified) | 108 to 112 °C
CCOC(=O)C(=O)Nc1ccc(Cl)ccc1=O | 178 to 179 °C
CC12C=CC(=O)CC1CCC1C2CCC2(C)C1CCC2(C)O (stereo unspecified) | 140 to 142 °C
CC(C)(OCc1cc2nc(Cl)ccc2n1S(=O)(=O)c1ccc2c(c1)OCO2)C(=O)O | 172 °C
CCCCCCSc1nnc(N)s1 | 113 to 115 °C
Cc1ccc(SC2OC(COC(=O)c3ccccc3)C(O)C(OC(=O)c3ccccc3)C2OC(=O)c2ccccc2)cc1 (stereo unspecified) | 197 °C
CC(C)C(=O)O[C@@H]1C[C@H](C(=O)Nc2ccc(N3CCOCC3=O)cc2)N(C(=O)Nc2ccc(Cl)cc2)C1 | 129 °C
CC(C)n1nc(-c2sc(NC(=O)CNCCO)nc2-c2ccccc2)ccc1=O | 142 to 144 °C
COC(=O)CC=CCC(=O)NCCc1ccccc1 | 69 to 70 °C

SMILES | melting point
CC1=C(C(=O)N2CCCCC2)C(c2ccccc2[N+](=O)[O-])C(S(C)(=O)=O)=C(C)N1 (stereo unspecified) | 275 to 276 °C
Cc1nc(=O)n(COc2ccccc2)c(C)c1Br | 120 °C
C[C@@H]1c2cccn2-c2ccc(F)cc2N1C(=O)c1ccc(O)cc1 | 125 to 129 °C
O=c1c(CO)cc(-c2ccc3c(c2)CCO3)nn1CC=Cc1ccc(Cl)cc1 | 131 to 141 °C
CC(C)(C)N(CCc1ccccc1)NC(=O)c1ccccc1 | 150 to 152 °C
COc1ccc(N2CCOCC2)c2sc(-c3nc(-c4ccccc4)c[nH]3)nc12 | 226 to 233 °C
CSc1ccc(C2=C(c3ccc(CO)cc3)CCC2)cc1 | 82 to 85 °C
COc1ncc(Cc2n[nH]c(=O)c3ccccc23)cc1Br | 227 to 228 °C
O=C(O)CCCC[C@@H]1SC[C@H]2[C@@H]1N(Cc1ccccc1)C(=O)N2Cc1ccccc1 | 88 to 89 °C
CCn1c(COc2ccc(CC3SC(=O)NC3=O)cc2)nc2cccnc21 (stereo unspecified) | 210 to 212 °C
Nc1c(SC(F)(F)F)c(C=O)nn1-c1c(Cl)cc(C(F)(F)F)cc1Cl | 140 to 143 °C
CCn1cc(CN(C(=O)Nc2c(C)cccc2C)c2ccc(C(C)C)cc2)cn1 | 108 °C
CC(=O)OCC1OC(c2ccc(F)c(Cc3ccc(Cl)s3)c2)C(OC(C)=O)C(OC(C)=O)C1OC(C)=O (stereo unspecified) | 130 to 131 °C
Cc1c(CN(C)CCc2ccc(NS(C)(=O)=O)cc2)oc2ccc(NS(C)(=O)=O)cc12 | 142 to 144 °C
Cc1ccc(-c2ncc(N3CCC(O)CC3)nc2-c2ccc(C)cc2)cc1 | 176 to 178 °C
COc1ccc(CN2C(=O)CCc3cc(O)c(OC)cc32)cc1 | 168 to 169 °C
Cc1nc2ccccc2n1Cc1ccc(C(=O)NC2CCN(C(=O)OC(C)(C)C)CC2)cc1 | 77 to 79 °C
C=C1CCC2C3CCc4cc(OC)ccc4C3CCC12C (stereo unspecified) | 59 to 62 °C
COc1ccc(Nc2nc(N3CCOCC3)nc(-n3c(C(F)F)nc4c(OC)cccc43)n2)cn1 | 201 to 202 °C
O=C(Nc1cccc(F)n1)c1cc(-c2ccc(Cl)cc2)nc2ccccc12 | 200 to 201 °C
COc1ccc(O)c(C2(CO)C(=O)N(Cc3ccc(C(F)(F)F)o3)c3cccc(Cl)c32)n1 (stereo unspecified) | 191 to 193 °C
CCn1cc(C(=O)O)c(=O)c2cc(F)c(N3CC(C)C(CN)C3)c(F)c21 (stereo unspecified) | 222 to 224 °C
O=C1C(Br)CCN1c1cccc(C(F)(F)F)c1 (stereo unspecified) | 79 to 83 °C
